Laboratory results from doi:10.1101/2024.07.26.605352v1, “In-vitro Metabolite Identification for MEDI7219, an Oral GLP-1 Peptide, using LC-MS/MS with CID and EAD Fragmentation” (bioRxiv, 2024).
One block for each substance: values may come before it.

Columns and labels:
[1] = system: Pancreatin from porcine pancreas; assay: In vitro incubation of MEDI7219 with pancreatin in PBS, LC-MS/MS metabolite identification and relative quantification; type: in vitro ADME; conditions: for Time at which fractional abundance peaked: pancreatin 3 mg/ml in PBS, 37 °C, sampling 0.5-6 h
Method: MEDI7219 solution (10 µg/ml) was incubated with pancreatin (3 mg/ml) in pre-warmed PBS buffer at 37 °C for 0.5 h, 1 h, 2 h, 4 h and 6 h. A negative control sample was prepared as pancreatin in PBS buffer without MEDI7219 spiked in. A time zero sample was prepared as MEDI7219 in PBS without pancreatin. At each time point, 100 µl was sampled and quenched with 200 µl of acetonitrile. The quenched solution was centrifuged at 6000 g for 10 min. Supernatant was diluted 5-fold in mobile phase A (0.1 % formic acid in water) and 40 µl was injected to LC-MS/MS. Same LC-MS system was used here as structural characterization experiment. A longer LC gradient was applied where 20 % B was increased to 60 % B within 8 min.
For MS method, DDA (data dependent acquisition) experiment was used where ions in range of 800-1250 Da were selected for MS/MS. Same key settings for CID and EAD established in the structural characterization experiment described above were applied in MS method here.
Data were analyzed using Molecule Profiler beta version 1.3.2 (MP, SCIEX) beta version. Raw data from incubation at each time point was analyzed against the pancreatin blank sample in the MP software. […] Amino acid sequence for MEDI7219 was entered as a processing parameter. Non-natural amino acids including α-methyl-L-alanine, α-methyl-L-phenylalanine, α-methyl-L-serine, α-methyl-L-lysine, as well as side-chain lipid on lysine (C35H63N5O11) were added as custom elements by providing molecular formula in the software. Peptide method was used to match all peptide fragment peaks with full lipid side chain. Both MS1 and MS2 were used for peak finding based on mass tolerance of 15 ppm. For MS parameters, charge states 2-5 were included in the search. For MS/MS parameters, theoretical b, y, c’, z· as well as y|a and y|b internal fragment ions were searched with mass tolerance of 15 ppm. Default Biologics biotransformation set was used in the processing method. For quantification, all isotope peaks as part of a cluster and multiple charge states of the same peptide were summed for peak area. Results from individual timepoints were consolidated in Correlation analysis with 0.1 min retention time (RT) tolerance and 15 ppm m/z tolerance to yield the final list of metabolites and peak areas from all samples.
Pancreatin was chosen for the in vitro evaluation because the site of maximal gastrointestinal absorption for MEDI7219 oral peptide was small intestine and proximal colon ([Pechenov et al., 2021]). […]
For relative quantification, after correlation analysis in MP software and exporting XIC peak areas, we calculated fractional abundance of each metabolite over the incubation period (Figure 4). […]

pancreatin = conditions: result in words; ref Pechenov et al., 2021; cited from earlier work
Excerpt: Systematic multi-disciplinary approach to engineering led to rational selection of the clinical lead, MEDI7219, a GLP-1 peptide with bis-lipidation and 12 amino acid substitutions and 5 α- methyl modifications ([Pechenov et al., 2021]). […] This measurement was done using HPLC with MEDI7219 detection by UV absorption at 210 nm. In this study, we identified key metabolites from MEDI7219 ... || For relative quantification, after correlation analysis in MP software and exporting XIC peak areas, we calculated fractional abundance of each metabolite over the incubation period (Figure 4). This was taken as a percent of XIC peak area of each metabolite over total peak area of all metabolites at a given timepoint (Table S2). Parent peptide decreased quickly in this experiment compared to the 60 % remained intact after 2 h in previous publication ([Pechenov et al., 2021]). The enzyme to substrate ratio was higher in this study compared to Pechenov et al. as the assay condition was optimized ...

[2] = result in words; ref Pechenov et al., 2021; cited from earlier work
Excerpt: Semaglutide was the first approved oral GLP-1 receptor agonist ([Mahapatra et al., 2022]) and it incorporated peptide engineering approaches such as unnatural amino acid substitution to protect proteolytic sites, and lipidation to promote plasma protein binding to reduce renal clearance.

Time at which fractional abundance peaked [1]: 0.5 h
Substance: HαAEGSαFTSDVαSSsidechainK [Metabolite M13, metabolite of MEDI7219 identified after incubation with pancreatin]

Time at which fractional abundance peaked [1]: 0.5 h
Substance: HαAEGSαFTSDVαSSsidechainKLEGEAAαKEαFIAsidechainK [Metabolite M2, metabolite of MEDI7219 identified after incubation with pancreatin]

Number of distinct cleavage sites ([1]; the 13 metabolites mapped on the MEDI7219 structure): 8
Substance: HαAEGSαFTSDVαSSsidechainKLEGEAAαKEαFIAsidechainK VVEGG [MEDI7219, orally-bioavailable GLP-1 peptide with bis-lipidation, 12 amino acid substitutions and 5 α-methyl modifications; clinical candidate]
Parent peptide in metabolite chromatograms over pancreatin incubation ([1]; summed XIC chromatograms, 0-6 h, CID data, result in words): still present at 0.5 h although no longer the prominent species, and it decreased significantly after 2 h
Proteolytic stability compared with wild type or semaglutide (pancreatin): proteolytically more stable than the wild type or semaglutide

Substance: semaglutide
Degradation in GI tract [2]: rapidly degraded in GI tract
